# Molecular target: T1, cellular COX-II (Homo sapiens, UniProt P35354)
# T1 construct: stimulated human fetal dermal fibroblasts (HFDF, derived from primary cell cultures); endogenous in cells; host or cells: human fetal dermal fibroblasts (HFDF), primary, stimulated with IL-1 beta
# T1 sequence (P35354 18-604): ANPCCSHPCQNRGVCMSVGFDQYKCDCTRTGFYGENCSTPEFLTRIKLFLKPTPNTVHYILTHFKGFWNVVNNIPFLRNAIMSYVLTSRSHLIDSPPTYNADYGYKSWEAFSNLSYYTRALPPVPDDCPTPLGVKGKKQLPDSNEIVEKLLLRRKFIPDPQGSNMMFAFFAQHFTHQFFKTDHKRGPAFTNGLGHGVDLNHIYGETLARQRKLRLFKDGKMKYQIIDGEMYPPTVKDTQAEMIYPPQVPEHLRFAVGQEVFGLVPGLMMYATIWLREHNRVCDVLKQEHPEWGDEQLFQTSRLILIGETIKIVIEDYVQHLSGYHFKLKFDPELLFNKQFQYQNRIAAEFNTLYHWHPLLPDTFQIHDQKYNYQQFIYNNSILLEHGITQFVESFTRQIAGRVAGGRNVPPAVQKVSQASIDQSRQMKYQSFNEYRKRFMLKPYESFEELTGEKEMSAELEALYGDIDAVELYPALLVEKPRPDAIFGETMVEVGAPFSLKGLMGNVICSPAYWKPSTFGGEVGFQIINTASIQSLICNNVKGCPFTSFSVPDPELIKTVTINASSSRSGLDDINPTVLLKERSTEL
# Assay: Cellular COX-II Assay (Cell Fibroblast Assay), IL-1 stimulated human fetal dermal fibroblasts, PGE2
# Format: cell-based
# Conditions: IL-1 beta stimulated human fetal dermal fibroblasts
# Method: The compounds of the invention are evaluated with respect to the inhibition of cellular COX-II in vitro according to the following Cellular COX-II Assay (Cell Fibroblast Assay).
# Cellular COX-II Assay (Cell Fibroblast Assay)
# Inhibition of cellular COX-II by test compounds is determined using stimulated human fetal dermal fibroblasts (HFDF, derived from primary cell cultures). Fibroblasts are cultured in microtiter wells at 1.5×10^4 cells/well in Dulbecco's Modified Eagle's Media (DMEM)(Gibco/BRL, Gaithersburg, Md. Sigma Chemical Co., St. Louis, Mo.) containing 4500 mg glucose/L, 100 units penicillin G/ml and 0.1 mg streptomycin/ml, 4 mM L-glutamine, 25 mM Hepes and 10% Fetal Bovine Serum (Gibco/BRL, Gaithersburg, Md. Bioproducts For Science, Inc., Indianapolis,Ind.). Following a 3-day incubation at 37° C., the culture media is removed by aspiration using low vacuum, and the cells are stimulated overnight with medium containing human recombinant IL-1 (interleukin-1) beta (1 ng/ml)(Cistron, Pine Brook, N.J.). The next day, the fibroblasts are washed with Phosphate Buffered Saline, and 185 μl of DMEM is added to each well. The cells are placed in a 37° C. incubator for 15 minutes. Compounds are then added to the cells using seven half-log dilutions in duplicate determinations. Cells are incubated with test compounds at 37° C. for 30 minutes. The COX-II substrate arachidonic acid (20 μM; Nu-Chek-Prep Inc., Elysian, Minn.) is then added to the cell cultures and the plates are incubated for 10 minutes at 37° C. Supernatants are collected and Prostaglandin E2 (PGE2) production is measured by an enzyme-linked immunosorbent assay (ELISA; antibodies produced by Cayman Chemical Company, Ann Arbor, Mich.). […] PG,60
# The following is a description of how the activities of the compounds of the present invention may be determined.
# A run of this assay consists of one (or more) plates, each containing, along with the standard (in row A), (1) two wells of unstimulated material (in col. 12), (2) five wells of stimulated material (in col. 12), (3) seven wells (one per concentration) for indomethacin (in col. 11), and (4) two wells at each of seven concentrations for five test compounds, one of which is a repeat of indomethacin. The response (ng/ml Eicosanoid) is estimated from the Standard curve and is highest at low concentrations and decreases as the concentration increases. If the response is plotted on the y-axis and the log of the concentration is plotted on the x-axis, the dose-response pattern for these assays is typically a symmetrical, sigmoidal shaped curve. If a full range of concentrations is used, the complete sigmoidal curve may be seen, starting with an upper asymptote, falling at some degree of steepness, and then leveling off at a lower asymptote. The IC50 is defined as the concentration corresponding to a response midway between the upper and lower plateaus. A theoretic "dose-response" model is used to estimate the IC50.
# The procedure described below was used to define the minimum and maximum responses for the compounds on a plate.
# The procedure uses information for indomethacin and the rest of the plate in defining the minimum and maximum response. The justification for doing this is as follows. Enough runs have been done with indomethacin to determine and use a range of concentrations such that the response to the lowest concentrations is on the upper plateau of the sigmoidal curve and the response to the highest concentrations is on the lower plateau of the sigmoidal curve. For the other compounds, if a response is measured which is less than the response for the unstimulated wells, then this response may be considered to be another estimate of a minimal response. Likewise, if a response is measured which is greater than the response for the stimulated wells, then this response may be considered to be another estimate of a maximal response. Based on this reasoning, the minimum is estimated as follows: […]
compound,measurement,value
"CC(C)(C)c1cc(S[C@H]2CCCC[C@H]2OCC(=O)O)cc(C(C)(C)C)c1 (racemic) [Example 72, (±)cis-2-[[2-[[3,5-bis(1,1-dimethylethyl)phenyl]thio]cyclohexyl]oxy]acetic acid]",IC50,0.37 µM
